Tests used:
Huh-Luc-Neo Cells = assay: CellTiter-Glo Cell Viability Assay; type: cell-based, human; settings: 48 h, read-out: Cytotoxicity*
Method: (§1) Day 0, Cell Seeding and Compound Treatment: Huh-Luc-Neo Cells are seeded at 25,000/well in an opaque-walled 96 plate with Growth Medium (DMEM phenol red free+PS+2 mM glutamine; 100 ul/well). The compounds to be tested for inhibition of cell viability are added to the experimental wells (10 μl/well at 10× assay concentration) and the cells are then incubated (5% CO2, 37° C.) for 48 h.
Day 2, Reagent Preparation and Assay: The CellTiter-Glo Buffer is thawed and equilibrated to room temperature prior to use. The lyophilized CellTiter-Glo Substrate is equilibrated to room temperature prior to use. 10 ml of CellTiter-Glo Buffer is transferred to 1 vial of CellTiter-Glo Substrate and mixed by gently with a Vortex. 100 μl of CellTiter-Glo Assay reagent (CellTiter-Glo Buffer+CellTiter-Glo Substrate Mixture) is added to each well. The well contents are mixed for 5 min. on an orbital shaker at room temperature to induce cell lysis and the luminescence is then measured using a luminometer.

HCV RNA = assay: HCV Replicon RNA Assay (Taqman); type: cell-based, Hepatitis C virus; settings: Huh-Luc-Neo cells, compound re-added at 24 h, HCV RNA by quantitative PCR; read-out: Replicon Inhibition*, Taqman
Method: (§2) Expression of HCV IRES driven luciferase reporter activity and HCV RNA is measured to obtain indirect and direct measures of replication of HCV RNA respectively. Inhibitors of HCV replication and/or proliferation are determined by initially identifying molecules that inhibit expression of the HCV IRES driven luciferase reporter in this HCV Replicon Luciferase Assay. Cell viability assays and control cell based luciferase assays are then run on hits identified in the HCV Replicon Luciferase Assay to eliminate cytoxic compounds and non-specific compounds which act by inhibiting the luciferase enzyme.
as §1, with “μl/well).” for “ul/well).”, “tested” for “tested for inhibition of cell viability”, “C.).” for “C.) for 48 h.”
Day 1, Media Change and Compound Treatment: 24 hours after the initial compound treatment the cell culture media is aspirated from the wells and fresh Growth Medium is added (DMEM phenol red free+PS+2 mM glutamine; 100 μl/well). The compounds to be tested are then added to the appropriate experimental wells (10 μl/well at 10× assay concentration) and the cells are then incubated (5% CO2, 37° C.) for an additional 24 hrs.
Day 2, RNA Isolation and cDNA Synthesis: The cells are washed with 1× Phosphate Buffered Saline (PBS) once.
Day 3, Quantitative PCR Based Measurement of HCV RNA (Taqman Assay): Quantitative PCR analysis to measure HCV RNA expression from cDNA synthesized on Day 2 is performed using the ABI 9700 HT Sequence Detection System (Applied Biosystems) as previously described (Lohman et al, Science 285, 110-113, 1999). The data is analyzed and IC50s are determined using GraphPad Prism 4 software. Hits validated in the Replicon RNA Assay have IC50s<8.0 μM and show <30% inhibition of Cell Viability at a compound concentration of 50 μM (Cell Titer Glow Assay, cell viability assay conditions identical to HCV Replicon RNA Assay conditions).

HCV Replicon = HCV Replicon Luciferase Assay; type: cell-based, Hepatitis C virus; settings: Huh-Luc-Neo cells, 48 h incubation, luciferase reporter; read-out: Replicon Inhibition*, Luciferase
Method: The identification of inhibitors of HCV replication and/or proliferation has been facilitated by the development of a cell-based system to study HCV replication. Inhibition of HCV replication may be performed using the HCV Replicon Assay developed in the laboratories of Bartenschlager (Lohman et al, Science 285, 110-113, 1999) and Rice (Blight et al, Science 290, 1972-1974, 2000). The assay is performed using the Huh-Luc-Neo cell line (Lohman et al, Science 285, 110-113, 1999). Huh-Luc-Neo cells are a human hepatoma cell line (Huh-7) stably expressing a bi-cistronic subgenomic replicon containing the HCV IRES in which the structural proteins of HCV have been deleted and replaced by a construct containing sequences coding for the firefly luciferase reporter gene, the neomycin selectable marker and the EMCV IRES to direct expression of a truncated HCV genome expressing the […] NS3, NS4A, NS4B, NS5A, and NS5B. HCV targets through which inhibitors could act to inhibit replication include the NS3 protease, the helicase/ATPase, NS5A, the NS5B-RNA dependent RNA polymerase, and the HCV IRES.
as §2
as §1, with “μl/well).” for “ul/well).”, “tested” for “tested for inhibition of cell viability”
Day 2, Reagent Preparation and Luciferase Assay: The Bright-Glo Luciferase Assay Buffer (Promega) is thawed and equilibrated to room temperature prior to use. The lyophilized Bright-Glo Luciferase Assay Substrate is equilibrated to room temperature prior to use. 10 ml of Bright-Glo Luciferase Assay Buffer is transferred to 1 vial of Bright-Glo Luciferase Assay Substrate bottle and mixed by gently with a Vortex. 100 μl of Bright-Glo Luciferase Assay reagent (Bright-Glo Luciferase Assay Buffer+Bright-Glo Luciferase Assay Substrate Mixture) is added to each well. The well contents are mixed for 5 min. on an orbital shaker at room temperature to induce cell lysis and the luminescence is then measured using a luminometer. The data is analyzed and IC50s are determined using GraphPad Prism 4 software. Hits validated in the Replicon Luciferase assay have IC50s<8.0 μM and show <30% inhibition of Cell Viability at a compound concentration of 100 μM (Cell Titer Glow Assay, cell viability assay conditions identical to HCV Replicon Luciferase Assay conditions).

## Cn1c(=O)cc(Sc2ccccc2F)c2ccccc21 [compound 008]
Huh-Luc-Neo Cells
  IC50: > 100 µM
HCV RNA
  IC50: 1 to 10 µM
HCV Replicon
  IC50: 1 to 10 µM

— US8143276B2, “4-thio substituted quinoline and naphthyridine compounds” (XTL Biopharmaceuticals Ltd., priority 2007, dated 2012)
